From ChEMBL document CHEMBL5050844 (2019) come the findings set out here.

The target of assay [1] is T1, E3 ubiquitin-protein ligase CBL-B (Homo sapiens, UniProt Q13191). Kind of assay: Binding affinity towards N-terminal biotinylated Avi-tagged human CBL-B (36 to 427 residues) measured by surface plasmon resonance assay.
Assay [2] can be described thus: Induction of anti-CD3 antibodies-stimulated human T cell activation at 8 uM assessed fold increase in IL-2 secretion measured by ELISA assay. Also: reference of the scale not given here. It counts as functional, T cell line.
Assay [3] in a line: Induction of anti-CD3 antibodies-stimulated human T cell activation at 8 uM assessed fold increase in CD25 expression measured by ELISA assay. Also: reference of the scale not given here. It counts as functional, T cell line.
Assay [4] in a line: Induction of anti-CD3/CD28 antibodies-stimulated human T cell activation at 4 uM assessed fold increase in IL-2 secretion measured by ELISA assay. The assay is classed as functional, T cell line.
Assay [5] is described as follows: Induction of anti-CD3/CD28 antibodies-stimulated human T cell activation at 0.3 uM assessed fold increase in IL-2 secretion measured by ELISA assay. It counts as functional, T cell line.
A short description of assay [6]: Induction of anti-CD3 antibodies-stimulated human T cell activation at 1 uM assessed fold increase in CD25 expression measured by ELISA assay. Also: reference of the scale not given here. It counts as functional, T cell line.
A short description of assay [7]: Induction of anti-CD3/CD28 antibodies-stimulated human T cell activation at 4 uM assessed fold increase in CD25 expression measured by ELISA assay. It counts as functional, T cell line.
Assay [8] can be described thus: Induction of anti-CD3/CD28 antibodies-stimulated human T cell activation at 1 uM assessed fold increase in CD25 expression measured by ELISA assay. The assay is classed as functional, T cell line.
A short description of assay [9]: Induction of anti-CD3/CD28 antibodies-stimulated human T cell activation at 1 uM assessed fold increase in IL-2 secretion measured by ELISA assay. It counts as functional, T cell line.
Assay [10] in a line: Induction of anti-CD3/CD28 antibodies-stimulated human T cell activation at 0.3 uM assessed fold increase in CD25 expression measured by ELISA assay. The assay is classed as functional, T cell line.
The target of assay [11] is T1, E3 ubiquitin-protein ligase CBL-B. Kind of assay: Inhibition of N-terminal Avi-tagged human CBL-B (36 to 427 residues) incubated with 60 nM Src kinase for 1.5 hrs followed by incubation with fluorescently labeled UbcH5B-Ub for 1 hr and measured by TR-FRET assay. It counts as single protein.
Assay [12] is described as follows: Induction of anti-CD3 antibodies-stimulated human T cell activation at 1 uM assessed fold increase in IL-2 secretion measured by ELISA assay. Also: reference of the scale not given here. It counts as functional, T cell line.

SMILES strings stand for the structures. Bounds are passed on as bounds.

T1 sequence (Q13191 whole entry, the tested form may be a part): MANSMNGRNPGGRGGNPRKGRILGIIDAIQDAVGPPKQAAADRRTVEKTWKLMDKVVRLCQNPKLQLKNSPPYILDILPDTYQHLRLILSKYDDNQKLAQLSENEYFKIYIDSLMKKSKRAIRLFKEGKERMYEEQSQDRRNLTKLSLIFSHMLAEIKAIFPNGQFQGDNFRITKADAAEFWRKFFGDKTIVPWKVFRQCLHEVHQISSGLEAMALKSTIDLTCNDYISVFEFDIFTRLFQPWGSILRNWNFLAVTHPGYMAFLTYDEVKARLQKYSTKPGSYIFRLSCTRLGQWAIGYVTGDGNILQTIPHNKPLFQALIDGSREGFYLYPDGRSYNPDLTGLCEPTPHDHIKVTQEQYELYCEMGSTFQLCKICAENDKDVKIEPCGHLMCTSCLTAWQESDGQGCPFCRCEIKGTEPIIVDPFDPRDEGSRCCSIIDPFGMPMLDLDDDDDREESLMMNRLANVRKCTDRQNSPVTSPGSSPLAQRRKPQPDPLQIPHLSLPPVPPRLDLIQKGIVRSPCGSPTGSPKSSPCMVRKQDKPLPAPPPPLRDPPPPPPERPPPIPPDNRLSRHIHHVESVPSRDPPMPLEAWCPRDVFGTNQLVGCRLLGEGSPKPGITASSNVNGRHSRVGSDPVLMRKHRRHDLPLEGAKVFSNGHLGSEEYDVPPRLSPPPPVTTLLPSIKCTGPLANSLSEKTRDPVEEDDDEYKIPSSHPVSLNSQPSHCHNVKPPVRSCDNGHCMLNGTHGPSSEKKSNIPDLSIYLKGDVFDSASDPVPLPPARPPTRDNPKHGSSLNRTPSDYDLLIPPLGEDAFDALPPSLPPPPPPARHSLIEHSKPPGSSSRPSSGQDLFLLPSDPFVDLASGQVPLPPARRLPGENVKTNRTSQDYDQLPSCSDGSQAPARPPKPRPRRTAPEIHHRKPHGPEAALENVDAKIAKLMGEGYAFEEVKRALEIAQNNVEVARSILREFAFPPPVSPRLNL

In the case of `CC(C)c1cccc(C(=O)Nc2cccc([C@H](C)Sc3nncn3C)c2)c1`, in assay [1], the Kd was > 10 µM.
Regarding `C=CCC(Sc1nncn1C)c1cccc(NC(=O)c2cc3ccccc3cn2)c1` (stereo not drawn), the equilibrium dissociation constant (Kd) in [1] was > 10 µM.
On the same count and under the same terms, with `COc1c(C(=O)Nc2cccc([C@H](C)Sc3nncn3C)c2)cccc1C(F)(F)F` the figure was > 10 µM; with `Cc1cnc(C(=O)Nc2cccc([C@H](C)Sc3nncn3C)c2)cc1C(F)(F)F`, > 10 µM; with `C[C@H](Sc1nncn1C)c1cccc(NC(=O)c2cc(C(=O)N3CCCC3)ccn2)c1`, > 10 µM.
Consider `C[C@H](Sc1nncn1C)c1ccnc(NC(=O)c2cc(C(F)(F)F)c(Cl)cn2)c1`, for which the Kd in assay [1] is > 10 µM.
In the case of `C=CCC(Sc1nncn1C)c1cccc(NC(=O)c2ccc3ccccc3n2)c1` (stereo not drawn), the Kd in [1] is > 10 µM.
In the case of `C[C@@H](Sc1nncn1C)c1ccc(F)c(NC(=O)c2cccc(C(F)(F)F)n2)c1`, the Kd in assay [1] was > 10 µM.
Take `C[C@H](Sc1nncn1C)c1cccc(NC(=O)c2cc(NS(=O)(=O)CCO)ccn2)c1`: the Kd in [1] was > 10 µM.
Take `C[C@@H](Sc1nncn1C)c1cccc(NC(=O)c2cc(C(=O)N3CCC(O)C3)ccn2)c1` (single isomer, unassigned): the dissociation constant (Kd) in assay [1] was > 10 µM.
As to `C[C@H](Sc1nncn1C)c1cccc(NC(=O)c2cc(C(=O)N3CCC[C@@H](O)C3)ccn2)c1`, the dissociation constant Kd in assay [1] was > 10 µM.
In the case of `C[C@@H](Sc1nncn1C)c1ccnc(N2Cc3c(cccc3C(F)(F)F)C2=O)c1`, in assay [1], the Kd was > 10 µM.
On the same count and under the same terms, the same measure for `CC(Sc1nncn1C)c1ccc(F)c(NC(=O)c2ccc3ccccc3n2)c1` (stereo not drawn): > 10 µM; for `CC(O)C1CN(C(=O)c2ccnc(C(=O)Nc3cccc([C@H](C)Cc4nncn4C)c3)c2)C1` (stereo partly drawn): < 0.1 µM.
`C[C@H](Sc1nncn1C)c1cccc(NC(=O)c2cc3cc(OCC(=O)O)ccc3cn2)c1`: the Kd in assay [1] was > 10 µM.
For `CC(c1cccc(N2Cc3c(cccc3C(F)(F)F)C2=O)c1)C(F)(F)c1nncn1C` (stereo not drawn), in assay [1], the Kd is < 0.1 µM.
Regarding `C[C@H](Sc1nncn1C)c1cccc(NC(=O)c2cc(C(=O)N3C[C@H](O)C[C@H]3C)ccn2)c1`, in [1], the Kd was > 10 µM.
`C[C@H](Cc1ncnn1C)c1cccc(N2Cc3c(cccc3C(F)(F)F)C2=O)c1`: in assay [1], the Kd is > 10 µM.
Turning to `C[C@H](Sc1nncn1C)c1cccc(NC(=O)c2cc(C(=O)N3C[C@@H](O)C[C@@H]3C)ccn2)c1`, in assay [1], the Kd is > 10 µM.
Turning to `C[C@H](Sc1nncn1C)c1cccc(NC(=O)c2cccc(C(F)(F)F)c2)c1`, the dissociation constant Kd in assay [1] is > 10 µM.
With `CC(c1cc2c(c(C(F)(F)F)c1)CN(c1cccc([C@H]3C[C@H]3c3nncn3C)c1)C2=O)N1CC[C@H](F)C1` (stereo partly drawn), the “fold change (FC)” value is on record as “>=0.201” in assay [2]; “>=1.001” in [3]; “>=7.5” in [4]; 2.51 in assay [5]; “>=1.001” in assay [6]; 1.51 in assay [7]. In addition, the “fold change (FC)” value in [8] is 1.51; in [9], “>=7.5”; in [10] it was 1.31; in assay [12], “>=0.201”. In addition, the IC50 in assay [11] was < 0.1 µM.
On to `C[C@H](c1cc2c(c(C(F)(F)F)c1)CN(c1cccc([C@@](C)(F)C(F)(F)c3nncn3C)c1)C2=O)N1CC[C@H](F)C1`, for which the “fold change (FC)” value in assay [2] is reported as “>=0.201”; in assay [3], “>=1.001”; in assay [4], “>=7.5”; in assay [5], 2.51; in assay [6] it was “>=1.001”; in assay [7], 1.51. In addition, the “fold change (FC)” value is listed as 1.31 in assay [8], “>=7.5” in [9], 1.01 in assay [10] and “>=0.201” in assay [12]. Also, the IC50 in [11] was < 0.1 µM.
Regarding `C[C@H](Cc1nncn1C)c1cccc(N2Cc3c(cc([C@H](C)N4CC[C@H](F)C4)cc3C(F)(F)F)C2=O)c1`, the “fold change (FC)” value in assay [2] is on record as “>=0.201”; in assay [3], “>=1.001”; in assay [4] it was “>=7.5”; in assay [5], “>=7.5”; in assay [6], “>=1.001”; in assay [7], 1.31. The “fold change (FC)” value in assay [8] is 1.31; in [9], “>=7.5”; in assay [10], 1.31; in assay [12], “>=0.201”. In addition, the IC50 in assay [11] is < 0.1 µM.
On to `Cn1cnnc1[C@@H]1C[C@@H]1c1cccc(N2Cc3c(cc(CN4CC[C@H](F)C4)cc3C(F)(F)F)C2=O)c1`, for which the “fold change (FC)” value in [2] was “>=0.201”; in [3], “>=1.001”; in assay [4], “>=7.5”; in [5], 2.51; in assay [6], “>=1.001”; in [7], 1.51. In addition, the “fold change (FC)” value in assay [8] is 1.31; in [9], “>=7.5”; in assay [10], 1.31; in assay [12] it was “>=0.201”. In assay [11], the IC50 is < 0.1 µM.
For `C[C@H]1C=CCN1Cc1cc2c(c(C(F)(F)F)c1)CN(c1cccc(C3(Cc4nncn4C)COC3)c1)C2=O`, the “fold change (FC)” value is given as “>=0.201” in [2]; “>=1.001” in assay [3]; “>=7.5” in [4]; “>=7.5” in assay [5]; “>=1.001” in assay [6]; 1.51 in assay [7]. The “fold change (FC)” value in assay [8] is 1.51; in assay [9], “>=7.5”; in assay [10], 1.31; in assay [12] it was “>=0.201”. Moreover, in assay [11], the IC50 is < 0.1 µM.
On to `C[C@H](Cc1nncn1C)c1cccc(NC(=O)c2ccnc(C3CC3)n2)c1`, for which the “fold change (FC)” value was “>=0.201” in assay [2]; “>=1.001” in assay [3]; “>=7.5” in assay [4]; 2.51 in assay [5]; “>=1.001” in assay [6]; 1.51 in assay [7]. Also, the “fold change (FC)” value is 1.31 in assay [8], 5 in assay [9], 1.01 in assay [10] and “>=0.201” in [12]. Also, in [11], the 50% inhibitory concentration (IC50) is < 0.1 µM.
In the case of `C[C@H](Cc1nncn1C)c1cccc(N2Cc3c(cc(C4CC4)cc3C(F)(F)F)C2=O)c1`, the “fold change (FC)” value in assay [2] was “>=0.201”; in [3] it was “>=1.001”; in assay [4] it was 2.51; in [5] it was 1.01; in assay [6] it was 0.801; in [7], 1.31. The “fold change (FC)” value is listed as 1.01 in assay [8], 1.01 in [9], 1.01 in assay [10] and “>=0.201” in assay [12]. The IC50 in assay [11] is < 0.1 µM.
Take `Cn1cnnc1CC1(c2cccc(N3Cc4c(cc(CN5CC(C)(C#N)C5)cc4C(F)(F)F)C3=O)c2)COC1`: the “fold change (FC)” value is reported as 0.051 in [2]; “<=0.6” in [3]; “>=7.5” in assay [4]; 2.51 in assay [5]; 0.601 in assay [6]; 1.51 in [7]. Further, the “fold change (FC)” value is given as 1.31 in assay [8], “>=7.5” in assay [9], 1.01 in assay [10] and 0.151 in assay [12]. In addition, in [11], the IC50 was < 0.1 µM.
